Test results reported in PubChem BioAssay AID1259407 (Chemical Carcinogenesis Research Information System (CCRIS), 2018).
Entries after “also recorded” stand apart in the source; their conditions may differ. Calls of active or inactive are those of the source. No rule for the calls is given here.

Test system: CCRIS mutagenicity, Ames/micronucleus/aberration tests
Experiment: CCRIS mutagenicity studies
[1] = Test System: AMES SALMONELLA TYPHIMURIUM, Strain/Indicator: TA97, Metabolic Activation: HAMSTER, LIVER, S-9, AROCLOR 1254 (10 OR 30%), Method: PREINCUBATION
[2] = Test System: AMES SALMONELLA TYPHIMURIUM, Strain/Indicator: TA97, Metabolic Activation: NONE, Method: PREINCUBATION
[3] = Test System: AMES SALMONELLA TYPHIMURIUM, Strain/Indicator: TA97, Metabolic Activation: RAT, LIVER, S-9, AROCLOR 1254 (10 OR 30%), Method: PREINCUBATION
[4] = Test System: AMES SALMONELLA TYPHIMURIUM, Strain/Indicator: TA98, Metabolic Activation: HAMSTER, LIVER, S-9, AROCLOR 1254 (10 OR 30%), Method: PREINCUBATION
[5] = Test System: AMES SALMONELLA TYPHIMURIUM, Strain/Indicator: TA98, Metabolic Activation: NONE, Method: PREINCUBATION
[6] = Test System: AMES SALMONELLA TYPHIMURIUM, Strain/Indicator: TA98, Metabolic Activation: RAT, LIVER, S-9, AROCLOR 1254 (10 OR 30%), Method: PREINCUBATION
[7] = Test System: AMES SALMONELLA TYPHIMURIUM, Strain/Indicator: TA100, Metabolic Activation: HAMSTER, LIVER, S-9, AROCLOR 1254 (10 OR 30%), Method: PREINCUBATION
[8] = Test System: AMES SALMONELLA TYPHIMURIUM, Strain/Indicator: TA100, Metabolic Activation: NONE, Method: PREINCUBATION
[9] = Test System: AMES SALMONELLA TYPHIMURIUM, Strain/Indicator: TA100, Metabolic Activation: RAT, LIVER, S-9, AROCLOR 1254 (10 OR 30%), Method: PREINCUBATION
[10] = Test System: AMES SALMONELLA TYPHIMURIUM, Strain/Indicator: TA1535, Metabolic Activation: HAMSTER, LIVER, S-9, AROCLOR 1254 (10 OR 30%), Method: PREINCUBATION
[11] = Test System: AMES SALMONELLA TYPHIMURIUM, Strain/Indicator: TA1535, Metabolic Activation: NONE, Method: PREINCUBATION
[12] = Test System: AMES SALMONELLA TYPHIMURIUM, Strain/Indicator: TA1535, Metabolic Activation: RAT, LIVER, S-9, AROCLOR 1254 (10 OR 30%), Method: PREINCUBATION
[13] = Test System: AMES SALMONELLA TYPHIMURIUM, Strain/Indicator: TA100, Metabolic Activation: NONE, Method: STANDARD PLATE

## CCCCCCC[CH2][Sn]([CH2]CCCCCCC)([S]CC(=O)OCCCCCC(C)C)[S]CC(=O)OCCCCCC(C)C
[1]
  mutagenic call: inactive; negative
[2]
  mutagenic call: inactive; negative
[3]
  mutagenic call: inactive; negative
[4]
  mutagenic call: inactive; negative
[5]
  mutagenic call: inactive; negative
[6]
  mutagenic call: inactive; negative
[7]
  mutagenic call: inactive; negative
[8]
  mutagenic call: active; positive
[9]
  mutagenic call: inactive; negative
[10]
  mutagenic call: inactive; negative
[11]
  mutagenic call: inactive; negative
[12]
  mutagenic call: inactive; negative

## NC(=O)c1ccccc1
[1]
  mutagenic call: inactive; negative
[2]
  mutagenic call: inactive; negative
[3]
  mutagenic call: inactive; negative
[4]
  mutagenic call: inactive; negative
[5]
  mutagenic call: inactive; negative
[6]
  mutagenic call: inactive; negative
[7]
  mutagenic call: inactive; negative
[8]
  mutagenic call: inactive; negative
[9]
  mutagenic call: inactive; negative
[10]
  mutagenic call: inactive; negative
[11]
  mutagenic call: inactive; negative
[12]
  mutagenic call: inactive; negative

## CNC(=O)Oc1cccc2c1OC(C)(C)O2
End Point: IN VIVO MICRONUCLEUS, Test System: BONE MARROW POLYCHROMATIC ERYTHROCYTES, Species: RABBIT, Strain/Sex: HYBRID HYLA/MALE, FEMALE, Route: ORAL (GAVAGE)
  mutagenic call: inactive; negative
End Point: In vitro Chromosomal aberrations, Test System: Human lymphocytes, Metabolic Activation: Activation by unspecified source
  mutagenic call: active; positive
End Point: In vitro Chromosomal aberrations, Test System: Human lymphocytes, Metabolic Activation: None
  mutagenic call: inactive; negative

## Cc1c(N)nc([C@H](CC(N)=O)NC[C@H](N)C(N)=O)nc1C(=O)N[C@H](C(=O)N[C@H](C)[C@@H](O)[C@H](C)C(=O)N[C@H](C(=O)NCCc1nc(-c2nc(C(=O)NCCCN(C)CCCN=C(N)CC3CCC(Cl)CC3)cs2)cs1)[C@@H](C)O)[C@@H](O[C@@H]1O[C@@H](CO)[C@@H](O)[C@H](O)[C@@H]1O[C@H]1O[C@H](CO)[C@@H](O)[C@H](OC(N)=O)[C@@H]1O)c1cnc[nH]1 (some centres undefined)
Test System: AMES SALMONELLA TYPHIMURIUM, Strain/Indicator: TA94, Metabolic Activation: NONE, Method: PREINCUBATION
  mutagenic call: active; positive
Test System: AMES SALMONELLA TYPHIMURIUM, Strain/Indicator: TA102, Metabolic Activation: NONE, Method: PREINCUBATION
  mutagenic call: active; positive

## NS(=O)(=O)c1cc(C(=O)O)c(NCc2ccco2)cc1Cl
End Point: IN VITRO CHROMOSOMAL ABERRATIONS, Test System: CHO CELLS, Metabolic Activation: NONE
  mutagenic call: active; positive; precipitation occurred at 3750 and 5000 ug/ml; also recorded: active; positive; precipitation occurred at 2513 ug/ml
End Point: IN VITRO CHROMOSOMAL ABERRATIONS, Test System: CHO CELLS, Metabolic Activation: RAT, LIVER, S-9, AROCLOR 1254
  mutagenic call: active; positive; precipitation occurred at all doses
Test System: AMES SALMONELLA TYPHIMURIUM, Strain/Indicator: TA98, Metabolic Activation: HAMSTER, LIVER, S-9, AROCLOR 1254 (10%), Method: PREINCUBATION
  mutagenic call: inactive; negative
Test System: AMES SALMONELLA TYPHIMURIUM, Strain/Indicator: TA98, Metabolic Activation: HAMSTER, LIVER, S-9, AROCLOR 1254, Method: PREINCUBATION
  mutagenic call: inactive; negative
[5]
  mutagenic call: inactive; negative
Test System: AMES SALMONELLA TYPHIMURIUM, Strain/Indicator: TA98, Metabolic Activation: RAT, LIVER, S-9, AROCLOR 1254 (10%), Method: PREINCUBATION
  mutagenic call: inactive; negative
Test System: AMES SALMONELLA TYPHIMURIUM, Strain/Indicator: TA98, Metabolic Activation: RAT, LIVER, S-9, AROCLOR 1254, Method: PREINCUBATION
  mutagenic call: inactive; negative
Test System: AMES SALMONELLA TYPHIMURIUM, Strain/Indicator: TA100, Metabolic Activation: HAMSTER, LIVER, S-9, AROCLOR 1254 (10%), Method: PREINCUBATION
  mutagenic call: inactive; negative
Test System: AMES SALMONELLA TYPHIMURIUM, Strain/Indicator: TA100, Metabolic Activation: HAMSTER, LIVER, S-9, AROCLOR 1254, Method: PREINCUBATION
  mutagenic call: inactive; negative
[8]
  mutagenic call: inactive; negative
Test System: AMES SALMONELLA TYPHIMURIUM, Strain/Indicator: TA100, Metabolic Activation: RAT, LIVER, S-9, AROCLOR 1254 (10%), Method: PREINCUBATION
  mutagenic call: inactive; negative
Test System: AMES SALMONELLA TYPHIMURIUM, Strain/Indicator: TA100, Metabolic Activation: RAT, LIVER, S-9, AROCLOR 1254, Method: PREINCUBATION
  mutagenic call: inactive; negative
Test System: AMES SALMONELLA TYPHIMURIUM, Strain/Indicator: TA1535, Metabolic Activation: HAMSTER, LIVER, S-9, AROCLOR 1254 (10%), Method: PREINCUBATION
  mutagenic call: inactive; negative
Test System: AMES SALMONELLA TYPHIMURIUM, Strain/Indicator: TA1535, Metabolic Activation: HAMSTER, LIVER, S-9, AROCLOR 1254, Method: PREINCUBATION
  mutagenic call: inactive; negative
[11]
  mutagenic call: inactive; negative
Test System: AMES SALMONELLA TYPHIMURIUM, Strain/Indicator: TA1535, Metabolic Activation: RAT, LIVER, S-9, AROCLOR 1254 (10%), Method: PREINCUBATION
  mutagenic call: inactive; negative
Test System: AMES SALMONELLA TYPHIMURIUM, Strain/Indicator: TA1535, Metabolic Activation: RAT, LIVER, S-9, AROCLOR 1254, Method: PREINCUBATION
  mutagenic call: inactive; negative
Test System: AMES SALMONELLA TYPHIMURIUM, Strain/Indicator: TA1537, Metabolic Activation: HAMSTER, LIVER, S-9, AROCLOR 1254 (10%), Method: PREINCUBATION
  mutagenic call: inactive; negative
Test System: AMES SALMONELLA TYPHIMURIUM, Strain/Indicator: TA1537, Metabolic Activation: HAMSTER, LIVER, S-9, AROCLOR 1254, Method: PREINCUBATION
  mutagenic call: inactive; negative
Test System: AMES SALMONELLA TYPHIMURIUM, Strain/Indicator: TA1537, Metabolic Activation: NONE, Method: PREINCUBATION
  mutagenic call: inactive; negative
Test System: AMES SALMONELLA TYPHIMURIUM, Strain/Indicator: TA1537, Metabolic Activation: RAT, LIVER, S-9, AROCLOR 1254 (10%), Method: PREINCUBATION
  mutagenic call: inactive; negative
Test System: AMES SALMONELLA TYPHIMURIUM, Strain/Indicator: TA1537, Metabolic Activation: RAT, LIVER, S-9, AROCLOR 1254, Method: PREINCUBATION
  mutagenic call: inactive; negative
Test System: MOUSE LYMPHOMA, Strain/Indicator: L5178Y (TK+/TK-), Metabolic Activation: NONE, Method: SUSPENSION/PLATE
  mutagenic call: inactive; negative
Test System: MOUSE LYMPHOMA, Strain/Indicator: L5178Y (TK+/TK-), Metabolic Activation: RAT, LIVER, S-9, AROCLOR 1254, Method: SUSPENSION/PLATE
  mutagenic call: active; positive

## C=CCCCCC1CO1 (centres undefined)
[13]
  mutagenic call: inactive; negative
Test System: AMES SALMONELLA TYPHIMURIUM, Strain/Indicator: TA1535, Metabolic Activation: NONE, Method: STANDARD PLATE
  mutagenic call: active; positive

## O=C(/C=C/c1ccc(Oc2ccccc2)cc1)c1ccccc1
Test System: AMES SALMONELLA TYPHIMURIUM, Strain/Indicator: TA98, Metabolic Activation: NONE, Method: STANDARD PLATE
  mutagenic call: inactive; negative
Test System: AMES SALMONELLA TYPHIMURIUM, Strain/Indicator: TA98, Metabolic Activation: RAT, LIVER, S-9, AROCLOR 1254, Method: STANDARD PLATE
  mutagenic call: inactive; negative
[13]
  mutagenic call: inactive; negative
Test System: AMES SALMONELLA TYPHIMURIUM, Strain/Indicator: TA100, Metabolic Activation: RAT, LIVER, S-9, AROCLOR 1254, Method: STANDARD PLATE
  mutagenic call: inactive; negative
